Reference: patent publication US10526316B2, “Quinoxaline and pyridopyrazine derivatives as PI3Kβ inhibitors” (Janssen Pharmaceutica NV, priority 2015, dated 2020)
Read-outs that look alike come from different tables or passages of the source.

Columns and labels:
PI3Kβ = biological target: T1, PI3Kβ (Homo sapiens, UniProt P42338); experiment: Enzyme binding assay (KINOMEscan, DiscoveRx); settings: PIK3Cβ_h, read-out: Kd PIK3Cβ_h
T1 construct: purchased DiscoveRx Corporation, San Diego (contract service, KINOMEscan)
T1 sequence (P42338 whole entry): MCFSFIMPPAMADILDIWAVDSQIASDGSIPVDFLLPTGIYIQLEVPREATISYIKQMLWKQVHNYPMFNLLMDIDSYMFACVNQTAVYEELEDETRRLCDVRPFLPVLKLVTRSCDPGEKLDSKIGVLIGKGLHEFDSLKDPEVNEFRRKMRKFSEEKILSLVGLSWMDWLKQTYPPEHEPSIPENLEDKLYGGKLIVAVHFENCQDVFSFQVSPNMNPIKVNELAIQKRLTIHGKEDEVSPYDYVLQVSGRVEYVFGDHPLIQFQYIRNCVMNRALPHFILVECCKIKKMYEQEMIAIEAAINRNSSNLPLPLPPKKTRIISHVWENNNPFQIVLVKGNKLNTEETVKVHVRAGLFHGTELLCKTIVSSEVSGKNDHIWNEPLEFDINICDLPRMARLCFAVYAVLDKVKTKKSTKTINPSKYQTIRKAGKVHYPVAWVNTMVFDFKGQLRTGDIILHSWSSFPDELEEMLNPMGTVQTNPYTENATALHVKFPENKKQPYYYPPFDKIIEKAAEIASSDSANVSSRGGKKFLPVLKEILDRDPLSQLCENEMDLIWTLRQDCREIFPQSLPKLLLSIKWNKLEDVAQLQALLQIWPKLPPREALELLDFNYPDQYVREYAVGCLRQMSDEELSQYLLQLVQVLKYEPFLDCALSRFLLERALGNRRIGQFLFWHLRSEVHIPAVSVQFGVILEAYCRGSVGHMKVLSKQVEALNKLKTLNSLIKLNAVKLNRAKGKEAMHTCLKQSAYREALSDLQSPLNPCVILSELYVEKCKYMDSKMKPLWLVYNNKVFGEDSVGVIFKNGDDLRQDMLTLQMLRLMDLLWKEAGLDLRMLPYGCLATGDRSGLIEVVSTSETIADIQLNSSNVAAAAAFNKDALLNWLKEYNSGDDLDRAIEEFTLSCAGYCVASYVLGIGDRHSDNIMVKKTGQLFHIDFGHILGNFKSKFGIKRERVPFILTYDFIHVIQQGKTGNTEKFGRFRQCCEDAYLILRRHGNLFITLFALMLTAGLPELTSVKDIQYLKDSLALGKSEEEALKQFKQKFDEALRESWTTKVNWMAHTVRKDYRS
Summary of the method: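 Kinase binding affinities were measured with KINOMEscan technology. Results are given as Kd, the inhibitor binding constant, in nM.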

[1] = system: Akt phosphorylated at Thr308 in PC-3 cells; experiment: Cellular assay: phosphorylation of Akt at Thr308 in PC-3 cells (MSD ELISA); format: cell-based; settings: PC-3 cells, 60 min compound incubation, MSD ELISA, read-out: IC50 pAkt_Thr308
Summary of the method: (§1)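 Electrochemiluminescent sandwich ELISA read-out: phospho-specific capture (Ser473 or Thr308), Sulfo-tag anti-total Akt detection, signal proportional to phospho-Akt. Cells treated 60 min at 37° C with compound, DMSO 0.3%. IC50 fitted from five concentrations.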

kinase enzymes [2] = biological target: T2, kinase enzymes (Homo sapiens, UniProt P48736); experiment: Enzyme binding assay (KINOMEscan, DiscoveRx), further kinases of Table A; settings: PIK3Cγ_h
T2 construct: purchased DiscoveRx Corporation, San Diego (contract service, KINOMEscan)
T2 sequence (P48736 whole entry): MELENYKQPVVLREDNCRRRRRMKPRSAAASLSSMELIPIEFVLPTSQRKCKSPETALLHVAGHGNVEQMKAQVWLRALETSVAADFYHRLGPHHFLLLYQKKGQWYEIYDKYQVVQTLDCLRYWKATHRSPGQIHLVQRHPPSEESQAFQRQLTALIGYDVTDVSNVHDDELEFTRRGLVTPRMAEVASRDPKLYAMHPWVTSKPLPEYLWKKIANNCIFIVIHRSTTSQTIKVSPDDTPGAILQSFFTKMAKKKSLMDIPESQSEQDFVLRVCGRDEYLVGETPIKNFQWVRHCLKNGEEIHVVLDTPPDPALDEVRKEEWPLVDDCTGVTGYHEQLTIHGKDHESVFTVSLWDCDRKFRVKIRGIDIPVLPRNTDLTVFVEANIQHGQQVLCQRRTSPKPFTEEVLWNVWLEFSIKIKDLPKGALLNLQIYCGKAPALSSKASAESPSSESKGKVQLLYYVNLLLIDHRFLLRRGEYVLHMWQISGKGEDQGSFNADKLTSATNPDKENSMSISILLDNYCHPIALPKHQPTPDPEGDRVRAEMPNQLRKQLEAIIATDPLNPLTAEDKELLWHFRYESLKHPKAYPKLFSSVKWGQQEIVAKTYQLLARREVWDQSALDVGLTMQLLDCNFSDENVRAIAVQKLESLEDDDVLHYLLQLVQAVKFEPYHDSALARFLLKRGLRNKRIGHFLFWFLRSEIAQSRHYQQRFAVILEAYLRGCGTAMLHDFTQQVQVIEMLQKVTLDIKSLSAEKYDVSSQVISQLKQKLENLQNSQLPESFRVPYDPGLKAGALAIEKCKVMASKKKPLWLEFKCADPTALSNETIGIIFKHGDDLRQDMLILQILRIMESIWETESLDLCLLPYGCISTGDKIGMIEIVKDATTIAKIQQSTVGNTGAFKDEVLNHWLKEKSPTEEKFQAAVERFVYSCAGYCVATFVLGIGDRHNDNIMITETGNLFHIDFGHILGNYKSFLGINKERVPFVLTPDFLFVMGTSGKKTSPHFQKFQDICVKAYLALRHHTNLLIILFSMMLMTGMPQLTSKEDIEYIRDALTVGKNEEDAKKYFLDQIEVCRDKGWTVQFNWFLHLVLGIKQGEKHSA
Summary of the method: (§2)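 Binding affinities were measured on the KINOMEscan platform.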

kinase enzymes [3] = biological target: T3, kinase enzymes (Homo sapiens, UniProt P42345); experiment: as above; settings: MTOR_h
T3 construct: purchased DiscoveRx Corporation, San Diego (contract service, KINOMEscan)
Summary of the method: as §2

kinase enzymes [4] = biological target: T4, kinase enzymes (Homo sapiens, UniProt P42336); experiment: as above; settings: PIK3Cα_h
T4 construct: purchased DiscoveRx Corporation, San Diego (contract service, KINOMEscan)
T4 sequence (P42336 whole entry): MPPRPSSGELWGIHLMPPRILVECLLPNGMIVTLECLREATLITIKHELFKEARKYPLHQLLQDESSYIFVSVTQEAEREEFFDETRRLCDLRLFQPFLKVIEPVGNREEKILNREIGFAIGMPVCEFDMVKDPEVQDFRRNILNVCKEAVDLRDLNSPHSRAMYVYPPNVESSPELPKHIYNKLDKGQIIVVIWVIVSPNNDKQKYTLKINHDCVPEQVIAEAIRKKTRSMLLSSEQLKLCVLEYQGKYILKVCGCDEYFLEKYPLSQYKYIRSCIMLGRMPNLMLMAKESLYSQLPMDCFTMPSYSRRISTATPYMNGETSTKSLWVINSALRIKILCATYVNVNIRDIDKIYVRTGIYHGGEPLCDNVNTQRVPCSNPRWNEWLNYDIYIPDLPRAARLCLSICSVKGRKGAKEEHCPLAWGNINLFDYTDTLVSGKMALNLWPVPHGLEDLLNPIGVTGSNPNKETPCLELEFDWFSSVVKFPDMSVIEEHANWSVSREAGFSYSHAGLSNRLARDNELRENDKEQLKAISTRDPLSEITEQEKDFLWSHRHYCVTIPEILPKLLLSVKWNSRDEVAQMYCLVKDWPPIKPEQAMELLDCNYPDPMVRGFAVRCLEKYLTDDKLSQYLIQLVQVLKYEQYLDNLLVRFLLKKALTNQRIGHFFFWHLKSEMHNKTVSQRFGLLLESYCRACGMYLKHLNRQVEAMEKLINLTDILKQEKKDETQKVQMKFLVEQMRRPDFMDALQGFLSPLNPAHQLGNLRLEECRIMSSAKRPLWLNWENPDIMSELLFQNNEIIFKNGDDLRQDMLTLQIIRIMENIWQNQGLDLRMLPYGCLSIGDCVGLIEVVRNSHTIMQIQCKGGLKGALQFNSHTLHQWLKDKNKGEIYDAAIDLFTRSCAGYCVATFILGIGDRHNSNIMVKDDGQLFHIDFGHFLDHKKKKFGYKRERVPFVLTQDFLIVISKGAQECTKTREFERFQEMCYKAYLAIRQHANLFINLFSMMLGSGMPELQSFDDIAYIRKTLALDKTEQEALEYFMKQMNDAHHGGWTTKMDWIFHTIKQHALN
Summary of the method: as §2

PI3Kδ = biological target: T5, PI3Kδ (Homo sapiens, UniProt O00329); experiment: Enzyme binding assay (KINOMEscan, DiscoveRx); settings: PIK3Cδ_h
T5 construct: purchased DiscoveRx Corporation, San Diego (contract service, KINOMEscan)
T5 sequence (O00329 1-1044): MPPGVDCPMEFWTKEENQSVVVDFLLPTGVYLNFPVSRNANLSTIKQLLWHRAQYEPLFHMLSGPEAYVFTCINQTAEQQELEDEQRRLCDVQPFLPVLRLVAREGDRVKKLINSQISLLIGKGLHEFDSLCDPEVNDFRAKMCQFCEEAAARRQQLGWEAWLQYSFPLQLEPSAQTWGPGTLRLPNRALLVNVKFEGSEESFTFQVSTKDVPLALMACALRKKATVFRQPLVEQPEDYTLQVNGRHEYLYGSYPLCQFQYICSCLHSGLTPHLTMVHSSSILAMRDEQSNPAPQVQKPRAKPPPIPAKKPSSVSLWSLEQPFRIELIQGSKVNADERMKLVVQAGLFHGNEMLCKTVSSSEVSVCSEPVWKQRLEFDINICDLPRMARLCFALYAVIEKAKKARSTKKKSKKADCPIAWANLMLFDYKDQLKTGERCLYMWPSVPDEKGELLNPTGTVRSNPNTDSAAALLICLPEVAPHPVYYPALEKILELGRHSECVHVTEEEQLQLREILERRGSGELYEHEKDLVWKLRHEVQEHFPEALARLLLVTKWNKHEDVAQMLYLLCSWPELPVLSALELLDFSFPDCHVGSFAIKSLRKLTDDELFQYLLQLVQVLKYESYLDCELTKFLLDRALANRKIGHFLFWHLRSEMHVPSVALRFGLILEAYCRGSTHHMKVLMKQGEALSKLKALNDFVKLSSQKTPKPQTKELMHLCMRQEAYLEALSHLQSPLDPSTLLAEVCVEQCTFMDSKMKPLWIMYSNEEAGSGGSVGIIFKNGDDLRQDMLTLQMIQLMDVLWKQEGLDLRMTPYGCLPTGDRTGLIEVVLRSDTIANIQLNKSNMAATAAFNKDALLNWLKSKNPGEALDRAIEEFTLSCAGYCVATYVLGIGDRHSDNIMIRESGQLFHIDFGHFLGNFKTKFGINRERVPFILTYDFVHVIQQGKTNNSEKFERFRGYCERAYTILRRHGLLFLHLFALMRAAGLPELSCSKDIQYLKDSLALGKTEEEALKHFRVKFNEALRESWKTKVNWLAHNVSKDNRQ
Summary of the method: as §2

[5] = system: Akt phosphorylated at Ser473 in PC-3 cells; experiment: Cellular assay: phosphorylation of Akt at Ser473 in PC-3 cells (MSD ELISA); format: cell-based; settings: PC-3 cells, 60 min compound incubation, MSD ELISA, read-out: IC50 pAkt_S473
Summary of the method: as §1

| Kd (PI3Kβ) | IC50 ([1]; Homo sapiens, PC-3, 1 h) | Kd (kinase enzymes [2]) | Kd (kinase enzymes [3]) | Kd (kinase enzymes [4]) | Kd (PI3Kδ) | IC50 ([5]; Homo sapiens, PC-3, 1 h) | melting point | IC50 [1] | IC50 [5] | Compound |
| --- | --- | --- | --- | --- | --- | --- | --- | --- | --- | --- |
| 47 nM | > 513 nM | 437 nM | 2240 nM | 479 nM | 955 nM | > 513 nM | 240 °C |  |  | CC(c1cc(C(=O)O)cc2ncc(N3CCOCC3)nc12)N(C)c1cccc(F)c1 (stereo not shown) [Compound 98] |
| 0.4 nM | 14 nM | 398 nM | > 30200 nM | 263 nM | 40 nM | 21 nM | 80 °C |  |  | CN(CCO)Cc1cc(C2CCCN2c2cc(F)cc(F)c2)c2nc(N3CCOCC3)cnc2c1 (stereo not shown) [Compound 101] |
| 3 nM | 28 nM | 3000 nM | 24500 nM | 1130 nM | 1000 nM | 65 nM | 80 °C |  |  | COCCNCc1cc(C2CCCN2c2cc(F)cc(F)c2)c2nc(N3CCOCC3)cnc2c1 (stereo not shown) [Compound 103] |
| 3 nM | 55 nM | 17800 nM | > 30200 nM | 1350 nM | 263 nM | 110 nM | 80 °C |  |  | CC(Nc1cccc(F)c1)c1cc(C(=O)N2CCOCC2)cc2ncc(N3CCOCC3)nc12 (stereo not shown) [Compound 104] |
| 8 nM | 138 nM | 28200 nM | > 30200 nM | 3890 nM | 871 nM | 302 nM | 161 °C |  |  | CC(c1cc(C(=O)N2CCOCC2)cc2ncc(N3CCOCC3)nc12)N(C)c1cccc(F)c1 (stereo not shown) [Compound 105] |
| 1 nM | ~62 nM | 2400 nM | > 30200 nM | 955 nM | 204 nM | 174 nM | 80 °C |  |  | COCCN(C)Cc1cc(C2CCCN2c2cc(F)cc(F)c2)c2nc(N3CCOCC3)cnc2c1 (stereo not shown) [Compound 112] |
| 2 nM | 81 nM | 11700 nM | > 30200 nM | 2240 nM | 490 nM | 105 nM | 80 °C |  |  | CC(Nc1cccc(Cl)c1)c1cc(C(=O)N2CCOCC2)cc2ncc(N3CCOCC3)nc12 (stereo not shown) [Compound 119] |
| 14 nM | 269 nM | > 30200 nM | > 30200 nM | 6760 nM | 2190 nM | 479 nM | 80 °C |  |  | Cc1cccc(NC(C)c2cc(C(=O)N3CCOCC3)cc3ncc(N4CCOCC4)nc23)c1 (stereo not shown) [Compound 120] |
| 10 nM | ~331 nM | > 30200 nM | > 30200 nM | 5370 nM | 1590 nM | 347 nM | 80 °C |  |  | COc1cccc(NC(C)c2cc(C(=O)N3CCOCC3)cc3ncc(N4CCOCC4)nc23)c1 (stereo not shown) [Compound 121] |
| 3 nM |  | 7970 nM | 14100 nM | 3700 nM | 660 nM |  | 116 °C | 9 nM | 12 nM | CNCCNC(=O)c1cc([C@@H](C)Oc2cccc(F)c2)c2nc(N3CCOCC3)cnc2c1 [Compound 122a] |
| 107 nM |  | 11500 nM | 17000 nM | 10200 nM | 5130 nM |  | 130 °C | 380 nM | > 513 nM | CNCCNC(=O)c1cc([C@H](C)Oc2cccc(F)c2)c2nc(N3CCOCC3)cnc2c1 [Compound 123a] |
| 4 nM | 93 nM | 7760 nM | 8130 nM | 1070 nM | 575 nM | 151 nM | 80 °C |  |  | CC(Nc1cccc(Br)c1)c1cc(C(=O)N2CCOCC2)cc2ncc(N3CCOCC3)nc12 (stereo not shown) [Compound 124] |
| 68 nM | > 513 nM | > 30200 nM | > 30200 nM | 6460 nM | 5890 nM | > 513 nM | 80 °C |  |  | CCc1cccc(NC(C)c2cc(C(=O)N3CCOCC3)cc3ncc(N4CCOCC4)nc23)c1 (stereo not shown) [Compound 125] |
| 13 nM | 275 nM | > 30200 nM | > 30200 nM | 6920 nM | 1290 nM | 427 nM | 80 °C |  |  | Cc1cc(C)cc(NC(C)c2cc(C(=O)N3CCOCC3)cc3ncc(N4CCOCC4)nc23)c1 (stereo not shown) [Compound 126] |
| 3 nM | 105 nM | 8910 nM | 9770 nM | 1780 nM | 1070 nM | 112 nM | 80 °C |  |  | CC(c1cc(C(=O)N2CCOCC2)cc2ncc(N3CCOCC3)nc12)N(CCO)c1cc(F)cc(F)c1 (stereo not shown) [Compound 129] |
| 0.5 nM | 65 nM | 240 nM | 6170 nM | 363 nM | 135 nM | 89 nM | 159 °C |  |  | CNCCNC(=O)c1cc(C(C)N(C)c2cccc(F)c2)c2nc(N3CCOCC3)cnc2c1 (stereo not shown) [Compound 130] |
| 11 nM | 363 nM | 20000 nM | > 30200 nM | 3160 nM | 2510 nM | 501 nM | 80 °C |  |  | CC(Nc1cccc(C#N)c1)c1cc(C(=O)N2CCOCC2)cc2ncc(N3CCOCC3)nc12 (stereo not shown) [Compound 131] |
| 0.5 nM | 37 nM | 2190 nM | 11500 nM | 832 nM | 115 nM | 52 nM | 80 °C |  |  | CNCCNC(=O)c1cc(C(C)Nc2cc(F)ccc2F)c2nc(N3CCOCC3)cnc2c1 (stereo not shown) [Compound 132] |
| 3 nM | 32 nM | 26300 nM | > 30200 nM | 5750 nM | 263 nM | 59 nM | 80 °C |  |  | CC(Nc1cc(Cl)cc(Cl)c1)c1cc(C(=O)N2CCOCC2)cc2ncc(N3CCOCC3)nc12 (stereo not shown) [Compound 133] |
| 87 nM | > 513 nM | > 30200 nM | > 30200 nM | > 30200 nM | 6310 nM | > 513 nM | 80 °C |  |  | COc1cc(NC(C)c2cc(C(=O)N3CCOCC3)cc3ncc(N4CCOCC4)nc23)cc(OC)c1 (stereo not shown) [Compound 134] |
| 195 nM | > 513 nM | 17400 nM | 11200 nM | 10000 nM | 3800 nM | > 513 nM | 144 °C |  |  | CC(Sc1ccccc1)c1cc(C(=O)N(C)C)cc2ncc(N3CCOCC3)nc12 (stereo not shown) [Compound 135] |
| 3 nM | 65 nM | 5130 nM | 15100 nM | 2340 nM | 355 nM | 178 nM | 184 °C |  |  | CC1CN(c2cnc3cc(C(=O)N(C)C)cc(C(C)Nc4cccc(F)c4)c3n2)CCO1 (stereo not shown) [Compound 136] |
| 0.5 nM | 7 nM | 741 nM | > 30200 nM | 209 nM | 59 nM | 10 nM | 80 °C |  |  | CCN1CCN(C(=O)c2cc(C3CCCN3c3cc(F)cc(F)c3)c3nc(N4CCOCC4)cnc3c2)CC1 (stereo not shown) [Compound 142] |
